# According to the RepoRT retention time repository:
# Experiment: Waters SunFire C18, 150 × 2.1 mm, 3.5 µm, 25 °C, 0.25 mL/min, estimated dead time 1.3 min; A: water + 0.1% formic acid; B: methanol; gradient (min/%B) 0/5 30/100
# Conditions: stereoisomer not certain
row,LC retention time,Compound
1,14.4 min,CCC1=CN2CCC3=c4ccccc4=NC3=C2C=C1
2,14.8 min,C=CC1CN2CCc3c([nH]c4ccccc34)C2CC1CC1c2[nH]c3ccccc3c2CCN1C (stereo unspecified)
3,14.4 min,CCC1CN2CCc3c([nH]c4ccccc34)C2CC1CC=O (stereo unspecified)
4,15.3 min,CC=C1CN2C(C3=CC4C5CC6N(CCC67c6ccccc6N(C3=O)C47)CC5=CCO)CC34c5ccccc5N5C(=O)CC=C(C1CC23)C54 (stereo unspecified)
5,14.7 min,CCC1CN2CCc3c([nH]c4ccccc34)C2CC1CC1c2[nH]c3ccccc3c2CCN1C (stereo unspecified)
6,15.5 min,CC=C1C[N+]2(C)CCc3c([nH]c4ccccc34)C2CC1Cc1nccc2c1[nH]c1ccccc12 (stereo unspecified)
7,13.3 min,C=CC1CN2CCc3c([nH]c4cc(O)ccc34)C2CC1CC1c2[nH]c3ccccc3c2CCN1C (stereo unspecified)
8,15 min,CC=C1CN2CCC34CN5c6c(cccc6C36C2CC1C(C(=O)OC)N6c1ccccc14)C12CCN3CCCC4(CCC51C4C)C32 (stereo unspecified)
9,27 min,CCC1=C(CC(=O)OC)C(OC)(c2nccc3c2[nH]c2ccccc23)OC1=O (stereo unspecified)
10,29.9 min,COC(=O)C1(COC(=O)C=Cc2ccccc2)C2CC(N(C)CC23OC3C)C23Nc4ccccc4C21CC(=O)O3 (stereo unspecified)
11,13.6 min,C=CC1CN2CCc3c([nH]c4ccc(O)cc34)C2CC1CC1c2[nH]c3ccccc3c2CCN1C (stereo unspecified)
12,22.1 min,O=c1c2cncc3c2c(c2n1CCc1c-2[nH]c2ccccc12)C=C3
13,13.7 min,C=CC1CN2CCc3c([nH]c4ccccc34)C2CC1CCO (stereo unspecified)
14,13.6 min,CN1CCC23C(=O)CC4C(=CCOC5CC(=O)N(c6ccccc62)C3C54)C1 (stereo unspecified)
15,16 min,CC=C1CN(C)CCC23C(=O)CC1C1COC(OC)C(=O)N(c4ccccc42)C13 (stereo unspecified)
16,16.6 min,CC=C1CN2CCc3c([nH]c4ccccc34)C2CC1Cc1nccc2c1[nH]c1ccc(O)cc12 (stereo unspecified)
17,16.3 min,CCC1CN2CCC34C5=C(CC6(CC7CC(CC)N8CCC9(C6=Nc6ccccc69)C78)CN5c5ccccc53)C1CC24 (stereo unspecified)
18,14.7 min,CC=C1CN2CCC34Cc5cc6c7c([nH]c6cc5OC35C2CC1C(C(=O)OC)N5c1ccccc14)CCC1(CC)CCCN(CC7)C1 (stereo unspecified)
19,23.3 min,COC(=O)C1=C2Nc3ccccc3C23CCN2CC4(CC5CC67CCOC6CCN6CCC8(c9cccc(OC)c9N(C4)C58O)C67)C4OCCC4(C1)C23 (stereo unspecified)
20,9.26 min,C=C1c2[nH]c3ccccc3c2CN2CCC1C(=CC)C2 (stereo unspecified)
21,16.6 min,CCC1CN2CCc3c([nH]c4cc(OC)c(OC)cc34)C2CC1CCO (stereo unspecified)
22,14.2 min,C=CC(CO)C1CC[N+]2(C)CCc3c([nH]c4ccccc34)C2C1 (stereo unspecified)
23,19.5 min,COC(=O)C1CC23CCCN4CCC5(c6cc(Cc7ccc8c(c7)C79CCN%10CCCC%11(CCC7(C(C(=O)OC)C%11)N8C)C%109)ccc6N(C)C15CC2)C43 (stereo unspecified)
24,15.3 min,CC=C1CN2CCC34c5ccccc5N5C(=O)C(C6CC78c9ccccc9N9C(=O)C=CC(C%10CC7N6CC%10=CC)C98)=CC(C1CC23)C54 (stereo unspecified)
25,17.5 min,CC=C1CN2CCc3c4n(c5ccccc35)C(C(=O)OC)C1CC42 (stereo unspecified)
26,13.4 min,CC=C1C[N+]2([O-])CCC34Cc5cc6c(cc5OC35C2CC1C(C(=O)OC)N5c1ccccc14)NC12CCC3(CC)CCC[N+]1(CCC62O)C3 (stereo unspecified)
27,14.2 min,C=C1C2CC(=O)c3[nH]c4ccccc4c3C1N(C)CC2=CC (stereo unspecified)

row,LC retention time,Compound
1,16.5 min,CC=C1CN2CCC3(O)c4ccccc4N4C=C(C(=O)OC)C1CC2C43O (stereo unspecified)
2,10.1 min,O=C1CC(O)C2C3CC4N(CCC45c4ccccc4N1C25)CC3=CCO (stereo unspecified)
3,17.2 min,COC(=O)C1CC23CCC[N+]4([O-])CCC5(c6ccccc6N(C(=O)OC)C15CC2)C34 (stereo unspecified)
4,10.3 min,C=CC1C(OC2OC(CO)C(O)C(O)C2O)OC2OC3CNC4CC1C2(C(=O)OC)C41Nc2ccccc2C31 (stereo unspecified)
5,13.5 min,COC(=O)C1CC23C=CCN4CCC5(c6ccccc6NC15C2C)C43 (stereo unspecified)
6,16.3 min,CCC1CN(C)C2Cc3c([nH]c4ccccc34)C(O)(c3cc4c5c([nH]c4cc3OC)C3(C(=O)OC)CC4CC(CC)C3N(CC5)C4)CC1C2C(=O)OC (stereo unspecified)
7,16.6 min,CCC1CN2CCc3c([nH]c4ccccc34)C2CC1CC1NCCc2c1[nH]c1ccccc21 (stereo unspecified)
8,11.7 min,CC=C1CN2CCc3c([nH]c4ccc(O)cc34)C2CC1CCO (stereo unspecified)
9,27.3 min,CC1OC=C2C(=O)N3CCc4c([nH]c5ccccc45)C3CC2C1C=O (stereo unspecified)
10,13.7 min,C=CC1CN2CCC1CC2C(O)c1ccnc2ccc(OC)cc12 (stereo unspecified)
11,18.5 min,C=CC(CO)C1CCN2CCc3c([nH]c4ccccc34)C2C1 (stereo unspecified)
12,18.7 min,CCC12CCCN3CCc4c(n(c5ccccc45)C(c4ccc5c(c4)C46CCN7CCCC8(CCC4(C(C(=O)OC)C8)N5C)C76)C1)C32 (stereo unspecified)
13,24.1 min,COC(=O)N1c2ccccc2C23CCN4C(=O)C=CC45CCC12C(C5)C(=O)O3 (stereo unspecified)
14,14.5 min,CCC1CN2CCc3c([nH]c4ccccc34)C2CC1Cc1nccc2c1[nH]c1ccccc12 (stereo unspecified)
15,13.8 min,CC=C1CN2CCC34C(=O)c5cc6c(cc5OC35C2CC1C(C(=O)OC)N5c1ccccc14)NC12CCC3(CC)CCC[N+]1(CCC62O)C3 (stereo unspecified)
16,13 min,CCC12C=CCN3CCc4c(n(c5ccccc45)C(O)(C(=O)OC)C1)C32 (stereo unspecified)
17,14.8 min,CCC1(O)CC23CC4N(CCC45C(=C2C(=O)OC)Nc2ccccc25)C13 (stereo unspecified)
18,8.71 min,C=CC1CN2CCC3(C(=O)Nc4c3ccc(O)c4C3CCCN3C)C2CC1CC1c2[nH]c3ccccc3c2CCN1C (stereo unspecified)
19,26.9 min,COC(=O)C1CC23CCCN4CCC5(c6ccccc6N(C(=O)OC)C15CC2)C43 (stereo unspecified)
20,15.8 min,CC=C1CN2C3CC1C1(C(=O)OC)C2CC2(c4cc(O)ccc4N(C)C32)C1OC(=O)c1cc(OC)c(OC)c(OC)c1 (stereo unspecified)
21,18.3 min,CC=C1CN2CCc3c([nH]c4ccccc34)C2CC1C(C=O)C(=O)OC (stereo unspecified)
22,16.1 min,CC=C(C=O)C1CC2c3c(c4ccccc4n3C(O)C1)CCN2C (stereo unspecified)
23,15.9 min,CC1OCC2C3CC(=O)C4(CCN(C)CC13)c1ccccc1NC24 (stereo unspecified)
24,17 min,COC(=O)C1=COC(C)C2CN3CCc4c([nH]c5cc(OC)c(OC)cc45)C3CC12 (stereo unspecified)
25,16.7 min,CC=C1C[n+]2ccc3c([nH]c4ccccc43)c2CC1CCO (stereo unspecified)
26,14.3 min,CC=C1CN(C)CC2Cc3c([nH]c4ccccc34)C(=O)CC12 (stereo unspecified)
27,23.2 min,CCC1=C(CC(=O)OC)C(O)(c2nccc3c2[nH]c2ccccc23)OC1=O (stereo unspecified)

row,Compound,LC retention time
1,CC=C1CN(C)CC2(C(=O)OC)Cc3c([nH]c4ccccc34)C(=O)CC12 (stereo unspecified),14.3 min
2,CCC1CC2CC3c4[nH]c5ccc(OC)cc5c4CCN(C2)C13 (stereo unspecified),13.6 min
3,CCC1CN2CCc3c([nH]c4ccccc34)C2CC1C(=COC)C(=O)OC (stereo unspecified),16.8 min
4,CC=C1CN2C3CC45c6ccccc6NC4(O3)C2CC1C5(COC(C)=O)C(=O)OC (stereo unspecified),17.3 min
5,COC(=O)C1=COC(C)C2CN3CCC4(C(=O)Nc5cc(OC)c(OC)cc54)C3CC12 (stereo unspecified),15.8 min
6,CC=C1CN2CCC34c5ccccc5N5C(C(=O)OC)C1CC2C53OC(=O)c1c4ccc(O)c1O (stereo unspecified),19.6 min
7,CCC1CC2CC3c4[nH]c5ccccc5c4CCN(C2)C13 (stereo unspecified),15.3 min
8,CC=C1CN2CCC34c5cc(O)ccc5N(C)C35OCC4(C(=O)OC)C1CC25 (stereo unspecified),14.3 min
9,COc1ccc2[nH]c3c(c2c1)CCN1CC2CC3C1C(C(C)O)C2 (stereo unspecified),14.9 min
10,COc1cc2c(cc1OC)C13CCN4CC5=CCOC6CC(=O)N2C1C6C5CC43 (stereo unspecified),12.9 min
11,CC=C1CN2C3CC45c6ccccc6N(C)C4C2CC1C3C5OC(=O)c1cc(OC)c(OC)c(OC)c1 (stereo unspecified),22.6 min
12,CCC1CN2CCC34c5ccccc5NC3C(CO)C1CC24 (stereo unspecified),10.4 min
13,CC=C1CN2C3CC1C(CO)(C(=O)OC)C2Cc1c3[nH]c2ccccc12 (stereo unspecified),12.9 min
14,CC=C1CN2C3CC1C1(C(=O)OC)C2CC2(c4ccccc4NC32)C1O (stereo unspecified),14.9 min
15,COc1ccc2c(c1)N1C(=O)CC3OCC=C4CN5CCC26C5CC4C3C16 (stereo unspecified),16.8 min
16,CCC1CN(C)C2Cc3c([nH]c4ccccc34)C(c3c(OC)ccc4c5c([nH]c34)C3([C-]=[O+]OC)CC4CC(CC)C3N(CC5)C4O)CC1C2C(=O)OC (stereo unspecified),15.1 min

row,Compound,LC retention time
1,C=CC12C=CCN3CCC4(c5ccccc5NC(=O)C4C1)C32 (stereo unspecified),11.7 min
2,CN1CCC23C(=O)CC4C(=CCOC5CC(=O)N(c6c(O)cccc62)C3C54)C1 (stereo unspecified),13.4 min
3,COc1cc2c(cc1OC)C13CCN(C)CC45OC4COC4CC(=O)N2C1C4C5CC3=O (stereo unspecified),10.1 min
4,CC=C1C[N+]2(C)CCC34c5ccccc5NC32C(O)CC1C4(CO)C(=O)OC (stereo unspecified),13.4 min
5,CC=C1CN2CCC34C(=C(C(=O)OC)C1CC23)Nc1ccccc14 (stereo unspecified),11.1 min
6,CC=C1C[N+]2(C)CCC34C(=C(C=O)C1CC32)Nc1ccccc14 (stereo unspecified),11.3 min
7,CCC1CC2CN3CCc4c([nH]c5ccc(OC)cc45)C(C(=O)OC)(C2)C13 (stereo unspecified),16.8 min
8,COC(=O)N1c2ccc(OC)cc2C23CCN4C(=O)C=CC45CCC12C3C5 (stereo unspecified),28.1 min
9,CC=C1CN2C(C3=CC4C5CC6N(CCC67c6ccccc6N(C3=O)C47)CC5=CC)CC34c5ccccc5N5C(=O)CC=C(C1CC23)C54 (stereo unspecified),16 min
10,CCC1CC2CC3c4[nH]c5cc(OC)ccc5c4CCN(C2)C13 (stereo unspecified),18.6 min
11,CC=C1CN2C(C3C(=O)N4c5ccccc5C56CCN7CC8=CCOC3C(C8CC75)C46)CC34c5ccccc5N5C(=O)C=CC(C1CC23)C54 (stereo unspecified),16.3 min
12,CCC1(O)C(=O)OCc2c1cc1n(c2=O)Cc2cc3ccccc3nc2-1 (stereo unspecified),27.2 min
13,C=CC12CN(C)C3C4COC(CC41)C1(C(=O)Nc4ccccc41)C32 (stereo unspecified),9.75 min
14,O=C1CC2OCC=C3CN4CCC56c7ccccc7N1C5C2C3CC46O (stereo unspecified),13.3 min
15,c1ccc2c(c1)NC13CCC4(CCCN5CCC21C54)CC3 (stereo unspecified),19.5 min
16,CCC12C=CCN3CCC4(C(=C(C(=O)OC)C1)Nc1ccccc14)C32 (stereo unspecified),18.2 min
